Results from patent publication US12226405B2, “Compounds and compositions for inhibiting the activity of HIF2-alpha and their methods of use” (Novartis AG, priority 2020, dated 2025).

Columns and labels:
[1] = tested on: HIF2α-regulated expression of the endogenous target gene hEGLN3 in 786-O cells; assay: Cellular iScript assay for HIF2α (quantitative RT-PCR of hEGLN3); type: cell-based, human
Procedure: (§1) Stock solutions of compounds were prepared at a concentration of 10 mM in DMSO and stored at 4° C. Where necessary to afford a full dose-response curve, the stock solutions were pre-diluted in DMSO to 1,000-fold the desired reduced start concentration. On the day after cell seeding, eleven 2-fold serial dilutions of each compound were dispensed directly into the cell assay plates using either HP 300D non-contact Digital Dispenser (TECAN) or a ATS100 acoustic dispenser (EDC Biosystems).
Compound-mediated modulation of the HIF2α-regulated expression of the endogenous target gene hEGLN3 (OMIM: 606426), as well as beta-actin (OMIM: 102630) as a house-keeping control, was assess in 786-O cells (RRID CVCL_1051) using a quantitative RT-PCR approach. In short, 786-O cells were maintained in growth medium composed of DMEM (GIBCO #11995-065), 2 mM L-Glutamine (BioConcept #5-10K50-H), 1× Penicillin/Streptomycin (BioConcept #4-01F00-H), 10% fetal calf serum (Gibco #A31608-01), 1 mM Sodium pyruvate (BioConcept #5-60F00-H). Cells were seeded at 1,000 cells/20 μL/well into white-wall, clear-bottom 384-well plates (Greiner #781098) and incubated over night at 37° C. prior to addition of serial compound dilutions as described above. Following incubation for 48 hours at 37° C., medium supernatant was discarded and the plate blotted dry by inverting on a tissue. The same procedure was repeated following one wash with 20 μL phosphate-buffered saline. Following addition of 25 μL/well iScript sample preparation reagent (BioRad #170-8899) using a 16-channel Matrix pipette, the plate was incubated for 2 min at room temperature. 20 μL lysate supernatant was then removed and transferred to a new 384 well plate (Costar #3656) and diluted 1:3 by adding 5 μL of the lysate to 10 μL H2O using a Bravo liquid handler (Agilent). 2 μL of the diluted lysate was added to the 8 μL of a mastermix containing 5 μL iTaq Universal Probes One-step kit (BioRad #172-5141), 0.25 μL iScript reverse transcription supermix (BioRad #1708840), 0.25 μL 40×HEX-ZEN-labeled TaqMan probe for beta-actin (IDT #Hs.PT.39a.22214847: Probe 5′ HEX-TCA TCC ATG/ZEN/GTG AGC TGG CGG-3′ (SEQ ID NO: 2) Iowa Black FQ, Primer 1: ACA GAG CCT CGC CTT TG (SEQ ID NO: 3); Primer 2: CCT TGC ACA TGC CGG (SEQ ID NO: 4) AG), 0.25 μL, 40×FAM-ZEN-labeled TaqMan probe for hEGLN3 (IDT #Hs.PT.58.189348: Probe 5′ 6-FAM-TTT GGC TTC/ZEN/TGC CCT TTC TTC AGC-3′ (SEQ ID NO: 5) Iowa Black FQ, Primer 1: CACGGTCAGTCTTCAGTGAG (SEQ ID NO: 6); Primer 2: CGCAACCAGATATGCTATGACT (SEQ ID NO: 7)), 2.25 μL RNase-free water, prelaid in a 384 well plate (ABI #4309849) using a 16-channel Matrix pipette. The plate was sealed with a PCR-compatible optical film (MicroAmp, ABI #4360954) and centrifuged (1500 rpm, 5 min, +4° C.) to collect all reagents in the bottom of the well and to remove bubbles. The plate content was amplified on a 7900HT thermal cycler (ABI) using the following conditions: Step 1: 50° C. for 10 min, Step 2: 95° C. for 3 min, Step 3 (40×): 95° C. for 15 s, 60° C. for 1 min. ROX (reaction volume 10 μL) was used as a passive reference. Data were collected with manual adjustment of the Ct threshold (beta-actin: 0.046, hEGLN3: 0.06) and were analyzed using the 2^(−ΔΔCt) method. Thus, for each sample, the following values were calculated: 2^(−Ct)a for beta-actin, 2^(−Ct)e for EGLN3, and 2^(−ΔCt) calculated as (2^(−Ct)e/2^(−Ct)a). The mean 2^(−ΔCt) as well as the corresponding standard deviation was calculated for each sample. Taking the DMSO-treated sample as a reference, the 2^(−ΔΔCt) for each sample was calculated as follows: 2^(−ΔΔCt)=2^(−ΔCt)sample/(2^(−ΔCt)DMSO). After calculating differential expression as 2^(−ΔΔCt) for each sample, it was then expressed as a percentage (×100) to obtain a dose-response curve in % of DMSO control and IC50s were calculated using a four-parametric fit model.

[2] = target: HIF2α PAS-B domain (236-350, biotinylated on the N-terminus) (Homo sapiens (Human), UniProt Q99814)
Procedure: The assay buffer contained 50 mM Tris-HCl pH7 (Sigma), 20 mM NaCl (Fluka), 0.02% BSA (Sigma), 0.005% Triton X-100 (Pierce) and 1 mM DTT (Fluka). After a 30 min incubation period, 5 μL Streptavidin PVT SPA Beads (Perkin Elmer) at 1.2 mg/mL, diluted in the buffer, were added.

[3] = tested on: HIF2α-dependent transcription in 786-O-HRE-Luc cells; assay: In vitro cellular hypoxia response element (HRE) reporter gene assay (RGA) for HIF2α; type: cell-based, human; settings: 24 hours incubation
Procedure: as §1
The ability of compounds to inhibit HIF2α- and HIF1α-dependent transcription was assessed in 786-O-HRE-Luc and RCC4-HRE-Luc cells, respectively. The putative unselective inhibition of firefly luciferase activity or expression was assessed in 786-O-UB6-Luc and RCC4-UB6-Luc cells, respectively. The reporter lines were generated as follows: 786-O (RRID: CVCL_1051) and RCC4 (RRID: CVCL_0498) clear cell renal carcinoma cell lines were obtained from ATCC and Celeste Simon (University of Pennsylvania), respectively. Either cell line was transduced with a lentiviral vector in which the expression of a PEST-destabilized version of firefly-luciferase is under the control of either a minimal promoter coupled to four copies of a minimal hypoxia response element (HRE) sequence (pLenti 4×HRE Luc PEST), or a promoter from the house-keeping UBC gene (pLenti UB6 Luc PEST). In short, for the construction of the pLenti 4×HRE Luc PEST vector, 4×HRE DNA oligonucleotides were synthesized, annealed and cloned into pGL4.27 plasmid vector (Promega) predigested with NheI and HindIII restriction enzymes. The sequence of the two DNA oligonucleotides was as follows: NheI 4×HRE HindIII FWD: […] (SEQ ID NO: 8); NheI 4×HRE HindIII REV […] (SEQ ID NO: 9). The 4×HRE Luc PEST fragment was then PCRed from this plasmid with restriction enzyme sites NheI and XhoI at the two ends, and inserted into pLenti6/BLOCK iT DEST (Thermo Fisher Scientific) predigested with NheI and XhoI restriction enzymes. For the construction of the pLenti UB6 Luc PEST vector, the Luc PEST sequence was PCRed from pGL4.27 (Promega) using EcoRV and XhoI restriction enzymes at the two ends, and inserted into pLenti6/UBC/V5/DEST (Thermo Fisher Scientific) predigested with the same enzymes. 786-O and RCC4 cells (300,000 per well of a 6 well plate) were infected in the presence of 10 μg/ml polybrene with lentivirus harvested two days after transfection of HEK293-FT (ThermoFisher Scientific #R70007) cells (80% confluent in a 100 cm^2 dish) with a mix of 1.5 ml OptiMEM (ThermoFisher Scientific #31985062) containing 3 μg of the desired plasmids and 9 μl of ViralPower Packaging mix (ThermoFisher Scientific #K497500), and 1.5 ml OptiMEM containing 36 μl Lipofectamine 2000 (ThermoFisher Scientific #11668019). Successfully infected cells were selected using blasticidin (Gibco #A11139-03) at a final concentration of 5 μg/ml. The resulting stable cell lines were named 786-O pLenti 4×HRE Luc PEST (short: 786-O-HRE-Luc), 786-O pLenti UB6 Luc PEST (short: 786-O-UB6-Luc), RCC4 pLenti 4×HRE Luc PEST (short: RCC4-HRE-Luc) and RCC4 pLenti UB6 Luc PEST (short: RCC4-UB6-Luc). All 4 cell lines were maintained in growth medium composed of DMEM (GIBCO #11995-065), 2 mM L-Glutamine (BioConcept #5-10K50-H), 10% fetal calf serum (Gibco #A31608-01), 1× Penicillin/Streptomycin (BioConcept #4-01F00-H), 1 mM Sodium pyruvate (BioConcept #5-60F00-H) and 5 μg/ml blasticidin (Gibco #A11139-03) at 37° C. in a humidified 5% CO2 incubator.
For the reporter gene assay, the individual cell lines were seeded at 2,500 cells/20 μL/well into white-wall, clear-bottom 384-well plates (Greiner #781098) and incubated over night at 37° C. prior to addition of serial compound dilutions as described above. […]

[4] = Homo sapiens, 786-0, 48 hours incubation

Chain of HIF2α PAS-B domain (236-350, biotinylated on the N-terminus) (Q99814 236-350): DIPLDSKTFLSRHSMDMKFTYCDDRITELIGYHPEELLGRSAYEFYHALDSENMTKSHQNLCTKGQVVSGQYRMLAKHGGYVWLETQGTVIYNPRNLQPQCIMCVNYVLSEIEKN

| Structure (SMILES) | IC50 [1, 4] [nM] | IC50 [2] [nM] | IC50 ([3]; Homo sapiens) [nM] | IC50 ([1]; 48 hours incubation) [nM] | IC50 [3] [nM] |
| --- | --- | --- | --- | --- | --- |
| N#Cc1ccc2c(c1F)C(F)(F)CC[C@@]21CN2C=C(C(F)(F)F)C=C(OC(F)F)C2=N1 [Example 15, (S)-8-(difluoromethoxy)-4′,4′,5′-trifluoro-6-(trifluoromethyl)-3′,4′-dihydro-2′H,3H-spiro[imidazo[1,2-a]pyridine-2,1′-naphthalene]-6′-carbonitrile] | 128 | 16 | 392 | – | – |
| Fc1c(Br)ccc2c1CCC[C@@]21CN2C=C(C(F)(F)F)C=C(Cl)C2=N1 [Example 16, (S)-6′-bromo-8-chloro-5′-fluoro-6-(trifluoromethyl)-3′,4′-dihydro-2′H,3H-spiro[imidazo[1,2-a]pyridine-2,1′-naphthalene]] | 43 | ≤ 6 | 372 | – | – |
| O=C1c2c(ccc(Br)c2F)[C@]2(CN3C=C(C(F)(F)F)C=C(OC(F)F)C3=N2)CC1(F)F [Example 17, (S)-6′-bromo-8-(difluoromethoxy)-3′,3′,5′-trifluoro-6-(trifluoromethyl)-2′H,3H-spiro[imidazo[1,2-a]pyridine-2,1′-naphthalen]-4′(3′H)-one] | 199 | 62 | 466 | – | – |
| O=C1c2c(F)cccc2[C@@]2(C[C@@H]1F)CN1C=C(C(F)(F)F)C=C(OC(F)F)C1=N2 [Example 21] | – | 36 | – | 121 | 1100 |
| N#Cc1ccc2c(c1F)CCC[C@@]21CN2C=C(C(F)(F)F)C=C(OC(F)F)C2=N1 [Example 22, (S)-8-(difluoromethoxy)-5′-fluoro-6-(trifluoromethyl)-3′,4′-dihydro-2′H,3H-spiro[imidazo[1,2-a]pyridine-2,1′-naphthalene]-6′-carbonitrile] | 37 | 8 | 185 | – | – |
| Fc1cccc2c1C(F)(F)CC[C@@]21CN2C=C(C(F)(F)F)C=C(OC(F)F)C2=N1 [Example 23, (S)-8-(difluoromethoxy)-4′,4′,5′-trifluoro-6-(trifluoromethyl)-3′,4′-dihydro-2′H,3H-spiro[imidazo[1,2-a]pyridine-2,1′-naphthalene]] | 30 | 4 | 92 | – | – |
| N#Cc1ccc2c(c1F)[C@@H](F)CC[C@@]21CN2C=C(C(F)(F)F)C=C(OC(F)F)C2=N1 [Example 25, (1′S,4'S)-8-(difluoromethoxy)-4′,5′-difluoro-6-(trifluoromethyl)-3′,4′-dihydro-2′H,3H-spiro[imidazo[1,2-a]pyridine-2,1′-naphthalene]-6′-carbonitrile] | 83 | 19 | 202 | – | – |
| N#CC1=CN2C[C@@]3(CCCc4c(F)cccc43)N=C2C(OC(F)F)=C1 [Example 26, (S)-8-(difluoromethoxy)-5′-fluoro-3′,4′-dihydro-2′H,3H-spiro[imidazo[1,2-a]pyridine-2,1′-naphthalene]-6-carbonitrile] | 34 | ≤ 6 | 144 | – | – |
| [2H]C1([2H])CC[C@@]2(CN3C=C(C#N)C=C(OC(F)F)C3=N2)c2cccc(F)c21 [Example 27, d2-(S)-8-(difluoromethoxy)-5′-fluoro-3′,4′-dihydro-2′H,3H-spiro[imidazo[1,2-a]pyridine-2,1′-naphthalene]-6-carbonitrile] | 102 | 12 | 188 | – | – |
| Fc1cccc2c1CCC[C@@]21CN2C=C(C(F)(F)F)C=C(OC(F)F)C2=N1 [Example 28, (S)-8-(difluoromethoxy)-5′-fluoro-6-(trifluoromethyl)-3′,4′-dihydro-2′H,3H-spiro[imidazo[1,2-a]pyridine-2,1′-naphthalene]] | 66 | 5 | 169 | – | – |
| FC1=CC(C(F)(F)F)=CN2C[C@@]3(CCCc4c3ccc(F)c4F)N=C12 [Example 29, (S)-5′,6′,8-trifluoro-6-(trifluoromethyl)-3′,4′-dihydro-2′H,3H-spiro[imidazo[1,2-a]pyridine-2,1′-naphthalene]] | 93 | 8 | 1310 | – | – |
